In patent US20180021270A1, “METHODS FOR THE TREATMENT OF CANCER USING COENZYME Q10 IN COMBINATION WITH IMMUNE CHECKPOINT MODULATORS” (Berg LLC, priority 2016, published 2018):
pIC50: −log10 of the molar value.

How the values were obtained:
[1] = test system: colon (HT29) cancer cells; assay: mRNA expression of PD1, PD-L1 and PD-L2 in cancer cells treated with Coenzyme Q10; assay type: cell-based, human; conditions: 50 μM Coenzyme Q10, relative to untreated cells (p<0.05; n=3)
Procedure: Levels of mRNA expression of the immune checkpoints PD1, PD-L1 and PD-L2 were determined in human breast (MDA-MB231), prostate (LnCAP), ovarian (SKOV-3), colon (HT29), lung (A549), liver (Huh-7), and pancreatic (MIA PaCa-2) cancer cells treated with 50 μM Coenzyme Q10, 100 μM Coenzyme Q10, or the IC50 of Coenzyme Q10 for each cell line.

[2] = test system: PD-L1 protein on the surface of breast cancer cells (MDA-MB231); assay: Flow cytometry of PD-L1 protein on the cancer cell surface; assay type: cell-based, human
Procedure: Flow cytometry analysis with a fluorescent probe for PD-L1 was used to determine the expression of PD-L1 protein on the surface of various human cancer cell lines. The cells were treated with 100 μM Coenzyme Q10, or the IC50 of Coenzyme Q10 for each cell line. […] The increased PD-L1 levels observed in breast cancer cells in response to Coenzyme Q10 treatment were not due to changes in cell populations.

human PBMCs (T cells) [3] = assay: Frequency of immune cell populations within PBMCs by flow cytometry; assay type: cell-based; conditions: 0-800 μM, 24 hours, dose dependent; greater effect in PHA-stimulated than unstimulated cells
Procedure: (§1) PBMCs isolated from healthy human donor leukopaks were isolated and cryopreserved. To study the effect of Coenzyme Q10, cells were thawed, rested overnight and treated with or without phytohemagglutinin (PHA). PHA is a lectin protein found in plants which activates T cells by inducing mitosis. Various concentrations of Coenzyme Q10 (0, 12.5, 50, 200, 400 or 800 μM) were added to the cells at the same time. 24 hours to 72 hours post-treatment, frequency and viability of immune cell subpopulations was evaluated, as well as proliferative potential, cytokine secretion, and inhibitory receptor surface expression.
The frequency of different immune cell populations within PHA stimulated or unstimulated human PBMCs concurrently treated with Coenzyme Q10 (0, 12.5, 50, 200, 400 or 800 μM) was evaluated by flow cytometry. 24 hours post treatment, PBMCs were analyzed for the surface markers CD3/CD8, CD3/CD4, CD3/CD56, or CD19/CD14. Frequency of immune cell subtypes was quantified by percentage of cells gated for T cells (CD3/CD8/CD4), natural killer T cells (NKT), natural killer (NK) cells, B cells, and monocytes. Cells from 5 healthy donors were tested.

human PBMCs (T cells) [4] = assay: Viability of immune cell subpopulations within PBMCs (Annexin V/7 AAD flow cytometry); assay type: cell-based; conditions: 0-800 μM Coenzyme Q10, 24 hours, PHA-stimulated or unstimulated PBMCs
Procedure: as §1
The viability of human immune cell subpopulations within PHA-stimulated or unstimulated PBMCs concurrently treated with Coenzyme Q10 was also determined. Cells were treated with 0, 12.5, 50, 200, 400 or 800 μM Coenzyme Q10 for 24 hours. Cell populations and viability was determined by flow cytometry using combinational staining of surface markers using Annexin V/7 AAD stains. Cells from 5 healthy donors were evaluated. Total, cytotoxic and helper T cell viability after treatment with increasing Coenzyme Q10 concentrations show T cell viability increased in response to Coenzyme Q10. FIG. 17A. […]

[5] = test system: human T cells within PBMCs; assay: T cell proliferation by Click-iT EdU flow cytometry; assay type: cell-based; conditions: 200 μM Coenzyme Q10, 72 hours, EdU final 18 hours
Procedure: Proliferation of T cells was assessed by flow cytometry using Click-iT® EdU technology (Thermo Fisher Scientific, Waltham, Mass.), a proliferation assay that is optimized for fluorescence microscopy applications. In this assay, the modified thymidine analogue EdU is incorporated into newly synthesized DNA and fluorescently labeled with a bright, photostable Alexa Fluor® dye. PBMCs were obtained from three different human donors. PBMCs were incubated with or without PHA for 72 hours while concurrently treated with Coenzyme Q10 (200 μM). 10 μM of EdU was added for the final 18 hours and stained with Invitrogen Alexa Fluor 488 piclyl azide according to the manufacturer's protocol. Cells were then stained with surface marker antibodies for CD3/CD8, or CD3/CD4 to identify cytotoxic T cells or helper T cells, respectively. Cells were then analyzyed by flow cytometry applying gating strategy.

[6] = test system: B16F10 skin melanoma cells; assay: Cell viability (CellTiter-Fluor) of mouse syngeneic tumor cell line; assay type: cell-based; conditions: B16F10, 72 hours, 37° C.
Procedure: (§2) The sensitivity of mouse syngeneic tumor cell lines to Coenzyme Q10 was evaluated in vitro. Six mouse syngeneic tumor cell lines from different tissue types were exposed to increasing concentrations of Coenzyme Q10 (0-25 mM) at 37° C. for 72 hours. Cell viability was measured using CellTiter-Fluor kit (Promega, Madison, Wis.). Graphs and IC50 values were calculated using GraphPad Prism using data for at least three independent experiments. Mouse syngeneic tumor cell lines evaluated were Lewis lung carcinoma (LL2), hepatoma (Hepa1-6) skin melanoma (B16F10), colon cancer (CT26), mammary gland adenocarcinoma (EMT6/P), and renal adenocarcinoma (Renca). As shown in FIGS. 24A-24F, Coenzyme Q10 reduced viability of all of the tumor cell lines in a dose dependent manner.

CT26 colon cancer cells = assay: as above; assay type: cell-based; conditions: CT26, 72 hours, 37° C.
Procedure: as §2

[7] = test system: EMT6/P mammary gland adenocarcinoma cells; assay: as above; assay type: cell-based; conditions: 72 hours, 37° C.
Procedure: as §2

Hepa1-6 hepatoma cells = assay: as above; assay type: cell-based; conditions: Hepa1-6, 72 hours, 37° C.
Procedure: as §2

[8] = test system: LL/2 Lewis lung carcinoma cells; assay: as above; assay type: cell-based; conditions: LL/2, 72 hours, 37° C.
Procedure: as §2

[9] = test system: Renca renal adenocarcinoma cells; assay: as above; assay type: cell-based; conditions: 72 hours, 37° C.
Procedure: as §2

- pIC50 [6]: 2.87
- pIC50 (CT26 colon cancer cells): 2.72
- pIC50 [7]: 2.66
- pIC50 (Hepa1-6 hepatoma cells): 3.04
- pIC50 [8]: 3.62
- pIC50 [9]: 2.43
SMILES: COC1=C(OC)C(=O)C(C/C=C(\C)CC/C=C(\C)CC/C=C(\C)CC/C=C(\C)CC/C=C(\C)CC/C=C(\C)CC/C=C(\C)CC/C=C(\C)CC/C=C(\C)CCC=C(C)C)=C(C)C1=O [Coenzyme Q10]
- PD-L1 mRNA expression [1]: significant increase
- Amount of PD-L1 protein on the cell surface ([2]; MDA-MB231, 3 hours after treatment): significantly increased
- Amount of PD-L1 protein on the cell surface, treated vs untreated ([2]; MDA-MB231, 6 hours after treatment): no significant difference
- Amount of PD-L1 protein on the cell surface ([2]; MDA-MB231, 72 hours after treatment): significantly increase
- Percentage of cells having PD-L1 protein on their surface ([2]; MDA-MB231, 72 hours after treatment, 100 μM or IC50 of Coenzyme Q10): did not significantly change
- Cell populations, treated vs untreated cells ([2]; MDA-MB231, flow cytometry): no changes
- Frequency of cytotoxic T cells (human PBMCs (T cells) [3]): increased
- Frequency of helper T cells (human PBMCs (T cells) [3]): increased
- Frequency of total T cells (human PBMCs (T cells) [3]): increased
- T cell viability (total, cytotoxic and helper T cells) (human PBMCs (T cells) [4]): increased
- Proliferation of PHA-activated cytotoxic T cells [5]: increased
